Laboratory results from patent publication US8962694B2, “Composition for pest control” (priority 2006, dated 2015).
Values joined by “and” are separate entries in the source; they are usually repeats but may differ in a detail not shown here. Identical values can stand only once.

How the values were obtained:
[1] = tested on: cane toads; test: Trial 2 single spray application of test pesticidal compositions; format: in vivo, Bufo marinus
Source text: The tests conducted in the second trial involved a single spray application of various test pesticidal compositions on cane toads. A hand-operated spray bottle was used to deliver a single standard dose of 3.0-3.3 gm of the particular test pesticidal agent to the dorsal surface of each animal. Animals were subsequently continuously monitored for their response to the treatment.

[2] = tested on: cane toads; test: Trial 1 two-step test: ethanol anaesthesia, then pesticidal agent applied to dorsal surface; format: in vivo, Bufo marinus
Protocol: Testing of the efficacy of various compositions for the purpose of cane toad extermination was conducted in two trials. The first trial comprised a “two-step” test in which subject toads were initially exposed to an anaesthetic agent and, once anaesthetised, exposed to a pesticidal agent (i.e. killing agent) in the presence of a suitable carrier. This two-step approach was undertaken to ensure the humane extermination of the animals.
Subject animals were therefore exposed to an approximate total dose of 3-4 ml of materials, comprising 2-3 gm of an anaesthetising agent (i.e. ethanol) and up to 1.0 ml of the particular pesticidal agent to be tested. A mist of ethanol was applied (“primary treatment”) to the dorsal surface of the toad from a hand-held spray bottle. When the toad was stupefied, as judged by the inability of the animal to right itself onto its ventral surface when turned onto its back (generally 10-15 minutes after treatment), the test pesticidal agent was administered (“secondary treatment”) onto the animal's dorsal surface by means of a micropipette. The test pesticidal agent included chloroxylenol (i.e. 4-chloro 3,5-dimethyl phenol) in different carriers including ethanol, isopropanol, propanol and dilute solutions thereof. Animals were monitored continuously for their response to the treatment.

[3] = tested on: cane toads
[4] = large toads (≧140 gm), carrier 40% ethanol with 60% isopropanol, chloroxylenol content 3.75%
[5] = large toads (≧140 gm), carrier 40% ethanol with 60% isopropanol, chloroxylenol content 5.00%
[6] = large toads (≧140 gm), carrier 60% ethanol with 40% isopropanol, chloroxylenol content 5.00%
[7] = large toads (≧140 gm), carrier 70% ethanol with 30% isopropanol, chloroxylenol content 2.00%
[8] = large toads (≧140 gm), carrier 70% ethanol with 30% isopropanol, chloroxylenol content 2.50%
[9] = large toads (≧140 gm), carrier 80% ethanol with 20% isopropanol, chloroxylenol content 2.50%
[10] = large toads (≧140 gm), carrier 80% ethanol with 20% isopropanol, chloroxylenol content 3.75%
[11] = large toads (≧140 gm), carrier 80% ethanol with 20% isopropanol, chloroxylenol content 5.00%
[12] = medium size toads (90.0-139.9 gm), carrier 40% ethanol with 60% isopropanol, chloroxylenol content 3.75%
[13] = medium size toads (90.0-139.9 gm), carrier 40% ethanol with 60% isopropanol, chloroxylenol content 5.00%
[14] = medium size toads (90.0-139.9 gm), carrier 60% ethanol with 40% isopropanol, chloroxylenol content 5.00%
[15] = medium size toads (90.0-139.9 gm), carrier 70% ethanol with 30% isopropanol, chloroxylenol content 2.00%
[16] = medium size toads (90.0-139.9 gm), carrier 70% ethanol with 30% isopropanol, chloroxylenol content 2.50%
[17] = medium size toads (90.0-139.9 gm), carrier 80% ethanol with 20% isopropanol, chloroxylenol content 2.50%
[18] = medium size toads (90.0-139.9 gm), carrier 80% ethanol with 20% isopropanol, chloroxylenol content 3.75%
[19] = medium size toads (90.0-139.9 gm), carrier 80% ethanol with 20% isopropanol, chloroxylenol content 5.00%
[20] = pooled chloroxylenol concentrations and ethanol/propanol carriers (FIGS. 1 and 2)
[21] = small toads (45.0-89.9 gm), carrier 60% ethanol with 40% isopropanol, chloroxylenol content 2.50%
[22] = small toads (45.0-89.9 gm), carrier 60% ethanol with 40% isopropanol, chloroxylenol content 3.75%
[23] = small toads (45.0-89.9 gm), carrier 60% ethanol with 40% isopropanol, chloroxylenol content 5.00%
[24] = small toads (45.0-89.9 gm), carrier 70% ethanol in water, chloroxylenol content 2.50%
[25] = small toads (45.0-89.9 gm), carrier 70% ethanol with 30% isopropanol, chloroxylenol content 2.50%
[26] = small toads (45.0-89.9 gm), carrier 70% ethanol with 30% isopropanol, chloroxylenol content 3.75%
[27] = small toads (45.0-89.9 gm), carrier 70% ethanol with 30% isopropanol, chloroxylenol content 5.00%
[28] = small toads (45.0-89.9 gm), carrier 70% ethanol with 30% methanol, chloroxylenol content 2.50%
[29] = small toads (45.0-89.9 gm), carrier 80% ethanol with 20% isopropanol, chloroxylenol content 2.50%
[30] = small toads (45.0-89.9 gm), carrier 80% ethanol with 20% isopropanol, chloroxylenol content 3.75%
[31] = small toads (45.0-89.9 gm), carrier 80% ethanol with 20% isopropanol, chloroxylenol content 5.00%
[32] = small toads (45.0-89.9 gm), carrier 98% ethanol with 2% citral, chloroxylenol content 2.50%
[33] = small toads (45.0-89.9 gm), carrier 100% ethanol, chloroxylenol content 0.50%, spray 3.0-3.3 gm
[34] = small toads (45.0-89.9 gm), carrier 100% ethanol, chloroxylenol content 2.50%
[35] = small toads (45.0-89.9 gm), carrier 100% ethanol, chloroxylenol content 5.00%
[36] = primary 100% ethanol 2.1-2.9 ml, secondary 5% chloroxylenol in 40% isopropanol/60% water, 1.0 ml, medium toads (90.0-139.9 gm)
[37] = primary 100% ethanol 2.1-2.9 ml, secondary 5% chloroxylenol in 40% isopropanol/60% water, 1.0 ml, small toads (45.0-89.9 gm)
[38] = primary 100% ethanol 2.1-2.9 ml, secondary 30% chloroxylenol in ethanol, 0.2 ml, small toads (45.0-89.9 gm)
[39] = primary 100% ethanol 2.1-2.9 ml, secondary 30% chloroxylenol in ethanol, 0.5 ml, small toads (45.0-89.9 gm)
[40] = primary 100% ethanol 2.1 ml, secondary 15% chloroxylenol in 60% isopropanol/40% water, 1.0 ml, small toads (45.0-89.9 gm)

## Cc1cc(O)cc(C)c1Cl [chloroxylenol, 4-chloro 3,5-dimethyl phenol]
[1]; 2.5% chloroxylenol, from fitted line of FIG. 2
  predicted time to kill toads of up to 200 gm weight: less than 60 minutes
[1]; compositions with 2.5% or more chloroxylenol
  large toads killed/treated: 31/32
[1]; compositions with 2.5% or more chloroxylenol, all toads treated (33)
  medium-sized toads killed: 33
[1]; [4]
  mean time to death: 52 min
  number died/number tested: 5/5
[1]; [5]
  mean time to death: 47 min
  number died/number tested: 4/4
[1]; [6]
  mean time to death: 39 min
  number died/number tested: 7/7
[1]; large toads (≧140 gm), carrier 70% ethanol with 30% isopropanol, chloroxylenol content 1.25%
  number died/number tested: 0/7;
[1]; [7]
  mean time to death: 50 min
  number died/number tested: 7/7
[1]; [8]
  mean time to death: 60 min
  number died/number tested: 7/7
[1]; [9]
  mean time to death: 91 min
  number died/number tested: 1/1
[1]; [10]
  mean time to death: 34 min
  number died/number tested: 3/4
[1]; [11]
  mean time to death: 53 min
  number died/number tested: 4/4
[1]; [12]
  mean time to death: 48 min
  number died/number tested: 4/4
[1]; [13]
  mean time to death: 46 min
  number died/number tested: 4/4
[1]; [14]
  mean time to death: 28 min
  number died/number tested: 7/7
[1]; [15]
  mean time to death: 65 min
  number died/number tested: 5/5
[1]; [16]
  mean time to death: 39 min
  number died/number tested: 5/5
[1]; [17]
  mean time to death: 37 min
  number died/number tested: 5/5
[1]; [18]
  mean time to death: 31 min
  number died/number tested: 4/4
[1]; [19]
  mean time to death: 52 min
  number died/number tested: 4/4
[1]; of 93 in total, three chloroxylenol concentrations in four propanol-ethanol carriers
  tests in which a lethal outcome was achieved: 92
[1]; [20]
  large toads died within 40 minutes (number): 12/32
  large toads died within 40 minutes (percent): 37%
  large toads died within 60 minutes (number): 23/32
  large toads died within 60 minutes (percent): 72%
  medium toads died within 40 minutes (number): 25/33
  medium toads died within 40 minutes (percent): 75%
  medium toads died within 60 minutes (number): 30/33
  medium toads died within 60 minutes (percent): 91%
  small toads killed in <30 minutes (number): 22/28
  small toads killed in <30 minutes (percent): 78%
  time to death, all medium sized toads: ≤ 102 min
  time to death, large toads, all but one: ≤ 120 min
[1]; pooled: 2.5%, 3.75%, 5% chloroxylenol in four ethanol/propanol carriers (FIGS. 1 and 2)
  time to death, all small toads: ≤ 40 min
[1]; [21]
  mean time to death: 27 min
  number died/number tested: 3/3
[1]; [22]
  mean time to death: 19 min
  number died/number tested: 3/3
[1]; [23]
  mean time to death: 21 min
  number died/number tested: 5/5
[1]; [24]
  mean time to death: 46 min
  number died/number tested: 3/3
[1]; [25]
  mean time to death: 26 min
  number died/number tested: 3/3
[1]; [26]
  mean time to death: 26 min
  number died/number tested: 3/3
[1]; [27]
  mean time to death: 22 min
  number died/number tested: 3/3
[1]; [28]
  mean time to death: 38 min
  number died/number tested: 3/3
[1]; [29]
  mean time to death: 25 min
  number died/number tested: 2/2
[1]; [30]
  mean time to death: 22 min
  number died/number tested: 4/4
[1]; [31]
  mean time to death: 16 min
  number died/number tested: 2/2
[1]; [32]
  mean time to death: 25 min
  number died/number tested: all three toads tested were killed and 3/3
[1]; [33]
  mean time to death: 62 min
  number died/number tested: one third and 1/3
[1]; [34]
  mean time to death: 28 min
  number died/number tested: 3/3
[1]; [35]
  mean time to death: 22 min
  number died/number tested: 3/3
[1]; small toads, ethanol as sole carrier or mixtures of ethanol and propanol, at least 2.5% chloroxylenol
  mean times to death: less than 30 minutes
[2]; chloroxylenol in carriers (ethanol alone or dilutions of propanol), all toads treated (12)
  ethanol-anaesthetised toads exterminated: 12
[2]; [36]
  mean time to death: 28 min
  number died/number tested: 1/1
[2]; [37]
  mean time to death: 30 min
  number died/number tested: 5/5
[2]; [38]
  mean time to death: 71 min
  number died/number tested: 2/2
[2]; [39]
  mean time to death: 64 min
  number died/number tested: 2/2
[2]; [40]
  mean time to death: 24 min
  number died/number tested: 2/2
[2]; two-step tests of Example 1
  onset of death: 16 to 102 min

## CCO [ethanol]
[3]; toads of all sizes
  anaesthetic effect of topical application: rapid- and long-acting anaesthetic
[3]; very small toads = less than about 45 gm
  lethality of ethanol alone: death only in some (but not all) very small toads
[2]; mist of ethanol on dorsal surface, 2-3 gm
  lag period before onset of anaesthesia (toad stupefied, unable to right itself): 10 to 15 min
